What was measured:
Type in all cases: in vivo
Chilo suppressalis = test: Example B1: activity against Chilo suppressalis (striped rice stemborer), artificial diet; details: 144 h, 200 ppm, L2 larvae, 6 days after infestation, read-out: control (at least one of mortality, anti-feedant effect, growth inhibition)
Procedure, shortened: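 Artificial diet in wells was treated with aqueous test solutions diluted from 10'000 ppm DMSO stocks, dried, then infested with 6-8 L2 larvae per well. Mortality, anti-feeding effect and growth inhibition were scored against untreated samples 6 days after infestation; control means any category exceeds the untreated sample.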

Pseudoplusia includens = test: Example B9: Pseudoplusia includens (soybean looper), larvicide, feeding/contact, soybean plants; details: Chrysodeixis includens, 120 h; 50 ppm; L2 larvae; 5 days after infestation; read-out: effect in at least one of the two categories (mortality or growth inhibition)
Experimental: Soybean plants were treated in a spray chamber, cut off and placed into petri dishes containing wet filter paper. 1d after application leaves were infested with 5 L2 larvae and covered with a fabric filter and plastic lids. 5 days after infestation the samples were assessed for mortality and growth inhibition. The following compounds gave an effect of at least 80% in at least one of the two categories (mortality or growth inhibition) at an application rate of 50 ppm: […]

Diabrotica balteata = test: Example B2: activity against Diabrotica balteata (corn root worm), maize sprouts; details: 96 h, L2 larvae, 4 days after infestation, read-out: effect in at least one of the two categories (mortality or growth inhibition)
Procedure, shortened: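 At 200 ppm, test solutions diluted in water from 10′000 ppm DMSO stocks were spray-applied to maize sprouts set on agar. Once dry, each well received 6–10 second-instar larvae. Four days later, mortality and growth inhibition were compared with untreated controls.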

Myzus persicae [1] = test: Example B7b: Myzus persicae feeding/contact activity, eggplant leaf discs; details: foliar, 144 h, mixed ages, 6 days after infestation
Experimental: Eggplant leaf discs were placed onto agar in a 24-well microtiter plate and sprayed with aqueous test solutions prepared from 10′000 ppm DMSO stock solutions. After drying, the leaf discs were infested with an aphid population of mixed ages. The samples were assessed for mortality 6 days after infestation.

Myzus persicae [2] = test: Example B4: activity against Myzus persicae (green peach aphid), intrinsic activity; details: 120 h, test rate 12 ppm, 5 days after infestation
Procedure, shortened: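 Mortality was read 5 days after infestation. Aphids on pea seedlings fed through a stretched Parafilm membrane on inverted 24-well plates containing sucrose solution mixed with test compound, which was diluted from 10′000 ppm DMSO stock.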

Spodoptera littoralis = test: Example B6: activity against Spodoptera littoralis (Egyptian cotton leaf worm), cotton leaf discs; details: foliar, 72 h, 200 ppm, L1 larvae, 3 days after infestation, read-out: control (at least one of mortality, anti-feedant effect, growth inhibition)
Procedure, shortened: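 Spray application onto agar-supported cotton leaf discs used aqueous solutions derived from 10′000 ppm DMSO stocks. Once dry, discs were infested with five L1 larvae and evaluated after 3 days for mortality, anti-feeding and growth inhibition relative to untreated controls.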

Plutella xylostella = test: Example B5: activity against Plutella xylostella (diamond back moth), artificial diet, eggs; details: 192 h, 8 days after infestation, read-out: effect in at least one of the two categories (mortality or growth inhibition)
Procedure, shortened: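 Scoring at 8 days post-infestation compared mortality and growth inhibition with untreated controls, on diet treated at 200 ppm with water-diluted DMSO stock solutions. Diamondback moth eggs were placed on the dried diet in 24-well plates.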

Euschistus heros = test: Example B3: activity against Euschistus heros (neotropical brown stink bug), soybean leaves; details: 120 h, N2 nymphs, 5 days after infestation, read-out: effect in at least one of the two categories (mortality or growth inhibition)
Experimental: Soybean leaves on agar in 24-well microtiter plates were sprayed with aqueous test solutions prepared from 10′000 ppm DMSO stock solutions. After drying the leaves were infested with N2 nymphs. The samples were assessed for mortality and growth inhibition in comparison to untreated samples 5 days after infestation. The following compounds gave an effect of at least 80% in at least one of the two categories (mortality or growth inhibition) at an application rate of 200 ppm: […]

C[C@H](Nc1ncnc2c(C(F)(F)F)cc(Cl)cc12)c1ncnn1-c1cc(C(=O)N(C)C)ncn1 [Compound P30, 6-[5-[(1S)-1-[[6-chloro-8-(trifluoromethyl)quinazolin-4-yl]amino]ethyl]-1,2,4-triazol-1-yl]-N,N-dimethyl-pyrimidine-4-carboxamide]
≥ 80%: percent control (mortality, anti-feedant effect or growth inhibition) at 200 ppm (Chilo suppressalis) | percent effect (mortality or growth inhibition) at 50 ppm (Pseudoplusia includens) | percent effect (mortality or growth inhibition) at 200 ppm (Diabrotica balteata) | mortality at 200 ppm (Myzus persicae [1]) | mortality at 12 ppm (Myzus persicae [2]) | percent control (mortality, anti-feedant effect or growth inhibition) at 200 ppm (Spodoptera littoralis) | percent effect (mortality or growth inhibition) at 200 ppm (Plutella xylostella)

C[C@@H](c1ncnn1-c1cc(C(N)=O)ncn1)N(C)c1ncnc2c(S(=O)(=O)C(F)(F)F)cc(Cl)cc12 [Compound P67, 6-[5-[(1S)-1-[[6-chloro-8-(trifluoromethylsulfonyl)quinazolin-4-yl]-methyl-amino]ethyl]-1,2,4-triazol-1-yl]pyrimidine-4-carboxamide]
≥ 80%: percent control (mortality, anti-feedant effect or growth inhibition) at 200 ppm (Chilo suppressalis) | percent effect (mortality or growth inhibition) at 200 ppm (Diabrotica balteata) | mortality at 200 ppm (Myzus persicae [1]) | mortality at 12 ppm (Myzus persicae [2]) | percent control (mortality, anti-feedant effect or growth inhibition) at 200 ppm (Spodoptera littoralis) | percent effect (mortality or growth inhibition) at 200 ppm (Plutella xylostella) | percent effect (mortality or growth inhibition) at 200 ppm (Euschistus heros)

CCN(C)C(=O)c1cc(-n2ncnc2[C@H](C)Nc2ncnc3c(C(F)(F)F)cc(Cl)cc23)ncn1 [Compound P31, 6-[5-[(1S)-1-[[6-chloro-8-(trifluoromethyl)quinazolin-4-yl]amino]ethyl]-1,2,4-triazol-1-yl]-N-ethyl-N-methyl-pyrimidine-4-carboxamide]
≥ 80%: percent control (mortality, anti-feedant effect or growth inhibition) at 200 ppm (Chilo suppressalis) | percent effect (mortality or growth inhibition) at 50 ppm (Pseudoplusia includens) | percent effect (mortality or growth inhibition) at 200 ppm (Diabrotica balteata) | mortality at 200 ppm (Myzus persicae [1]) | mortality at 12 ppm (Myzus persicae [2]) | percent control (mortality, anti-feedant effect or growth inhibition) at 200 ppm (Spodoptera littoralis) | percent effect (mortality or growth inhibition) at 200 ppm (Plutella xylostella)

C[C@H](Nc1ncnc2c(S(=O)(=O)C(F)(F)F)cc(Cl)cc12)c1ncnn1-c1cc(C(N)=O)ncn1 [Compound P59, 6-[5-[(1S)-1-[[6-chloro-8-(trifluoromethylsulfonyl)quinazolin-4-yl]amino]ethyl]-1,2,4-triazol-1-yl]pyrimidine-4-carboxamide]
≥ 80%: percent control (mortality, anti-feedant effect or growth inhibition) at 200 ppm (Chilo suppressalis) | percent effect (mortality or growth inhibition) at 200 ppm (Diabrotica balteata) | mortality at 200 ppm (Myzus persicae [1]) | mortality at 12 ppm (Myzus persicae [2]) | percent control (mortality, anti-feedant effect or growth inhibition) at 200 ppm (Spodoptera littoralis) | percent effect (mortality or growth inhibition) at 200 ppm (Plutella xylostella) | percent effect (mortality or growth inhibition) at 200 ppm (Euschistus heros)

C[C@H](Nc1ncnc2c(C(F)(F)F)cc(Cl)cc12)c1ncnn1-c1cc(C(=O)N(C)C2CC2)ncn1 [Compound P63, 6-[5-[(1S)-1-[[6-chloro-8-(trifluoromethyl)quinazolin-4-yl]amino]ethyl]-1,2,4-triazol-1-yl]-N-cyclopropyl-N-methyl-pyrimidine-4-carboxamide]
≥ 80%: percent control (mortality, anti-feedant effect or growth inhibition) at 200 ppm (Chilo suppressalis) | percent effect (mortality or growth inhibition) at 200 ppm (Diabrotica balteata) | mortality at 200 ppm (Myzus persicae [1]) | mortality at 12 ppm (Myzus persicae [2]) | percent control (mortality, anti-feedant effect or growth inhibition) at 200 ppm (Spodoptera littoralis) | percent effect (mortality or growth inhibition) at 200 ppm (Plutella xylostella) | percent effect (mortality or growth inhibition) at 200 ppm (Euschistus heros)
